System: keratinocytes
Assay: Antioxidant effect on keratinocytes: ROS by flow cytometry with CM-H2DCFDA after solar simulator irradiation
Type: cell-based
Settings: 2nd experiment: incubation 48 h, 0.5% w/v in the culture medium
Excerpt: The assessment of the antioxidant effect of the compositions C3 and C4 according to the invention has been based on the dosage of the amount of reactive oxygen species (ROS) produced in the medium by flow cytometry, after setting the cells treated with these compositions in presence with the oxidative stress indicator CM-H2DCFDA (5-(and-6)-chlorométhyl-2′,7′-dichlorodihydrofluorescein diacetate, acetyl ester) (Invitrogen®). By cleavage of its acetate groups with esterases and its intracellular oxidation by the ROS, this non-fluorescent indicator is converted into highly-fluorescent dichlorofluorescein 2′,7′ (DCF). Thus, the measurement of the fluorescence intensity allows deducing the amount of DCF, and consequently of ROS, in the cell medium. […]
Afterwards, the cells have been detached by tryptinisation by means of trypsin at 0.0025% and EDTA at 0.01% for 10 min at 37° C., neutralised by fetal calf serum at 10% and separated from the medium by centrifugation. […] Afterwards, the fluorescence has been read by a flow cytometer Accuri® 6.
The obtained results, expressed in % of mean fluorescence intensity (MFI) with respect to the non-irradiated (and without C4) control condition, are shown in FIG. 11. […]

## Cc1c(C)c2c(c(C)c1O)CC[C@@](C)(CCC[C@H](C)CCC[C@H](C)CCCC(C)C)O2 [α-tocopherol]
  production of ROS (% of mean fluorescence intensity vs non-irradiated control): strongly inhibits the production of ROS

Reference: US20240269296A1, “ANTIOXIDANT NUCLEOLIPID PRODRUG, PHARMACEUTICAL COMPOSITION FOR ADMINISTRATION THEREOF, AND THERAPEUTIC USES THEREOF” (UNIVERSITE DE BORDEAUX, priority 2021, published 2024)
